By Ki is commonly meant a dissociation constant, usually derived from enzyme kinetics or from competition with a known ligand.

Structures are written as SMILES.

Test [1] concerns the target T1, m2 receptors in brain stem (Rattus norvegicus, UniProt P10980).
T1 sequence (P10980 1-466): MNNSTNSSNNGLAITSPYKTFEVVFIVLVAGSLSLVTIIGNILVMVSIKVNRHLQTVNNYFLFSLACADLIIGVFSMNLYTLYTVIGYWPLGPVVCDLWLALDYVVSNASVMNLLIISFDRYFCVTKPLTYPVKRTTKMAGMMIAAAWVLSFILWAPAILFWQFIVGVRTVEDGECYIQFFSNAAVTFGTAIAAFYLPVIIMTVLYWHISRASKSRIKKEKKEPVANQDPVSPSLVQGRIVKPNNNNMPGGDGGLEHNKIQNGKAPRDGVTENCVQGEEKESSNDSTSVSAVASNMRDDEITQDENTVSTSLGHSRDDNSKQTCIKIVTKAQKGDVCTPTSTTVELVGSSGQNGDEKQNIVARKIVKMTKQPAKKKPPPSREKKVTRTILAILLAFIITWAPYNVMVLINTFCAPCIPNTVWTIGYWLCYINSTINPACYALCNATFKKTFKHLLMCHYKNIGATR
The test can be described thus: 3H-guinuclidinyl benzilate binding to m2 receptors in brain stem.

The test system of a further test is m4 receptors. Description: cAMP formation in CHO m4 cells treated with pertussis toxin. The test is classed as cell-based. From the text: Muscarinic agonists stimulate the formation of cAMP up to 10 fold in CHO m4 cells treated with pertussisi toxin and the pharmacology is consistent with the mediation by m4 receptors. Eckols K. Soc. Neurosci Abstr., 21:2040 (1995).
In general terms: Changes in cAMP serve as a functional read-out for many G protein-coupled receptors.

Regarding `CCCCCCOc1nsnc1C1=CCCN(C)C1` [Xanomeline, 3-(4-hexyloxy-1,2,5-thiadiazol-3-yl)-1,2,5,6-tetrahydro-1-methylpyridine], the affinity in test [1] corresponds to a Ki of 24 nM. Besides, in the test with m4 receptors, the “stimulation of the formation of cAMP” value was “efficaciously and potently stimulated the formation of cAMP”.
